Results: PMC8583417, “Evaluation of the Antimicrobial Efficacy of N-Acetyl-L-Cysteine, Rhamnolipids, and Usnic Acid—Novel Approaches to Fight Food-Borne Pathogens” (International Journal of Molecular Sciences, 2021)

Key:
E. coli 693/17 [1] = assay: MIC for metabolic activity of preformed biofilm (MTT reduction assay); type: cell-based, Escherichia coli
Description: (§1) Ten concentrations of NAC, RLs, and UA were tested to determine the minimum inhibitory concentration for planktonic growth, and subsequently, the six highest concentrations were applied on preformed biofilms to evaluate the biofilm eradication ability of the compounds. MIC was defined as the lowest substance concentration able to inhibit at least 80% of microbial growth (MICPC80 for planktonic cells, MICBC80 for further growth of biofilm cells), inhibit 80% of metabolic activity (MICBM80 for biofilm metabolic activity, MICMPB80 for metabolic activity of preformed biofilm), prevent biofilm formation by at least 80% (MICBF80 for biofilm formation), or reduce a preformed biofilm by at least 80% (MICBR80 for biofilm reduction). The results of MICs are summarized in Table 1 (planktonic cells) and Table 2 (biofilm-associated cells).
(§2) The determination of MICs was performed according to Chlumsky et al.. Briefly, 96-well flat-bottomed microtiter plates were inoculated with 75 µL (for biofilm formation) or 100 µL (for preformed biofilm) of bacterial suspension (A625nm 0.08 to 0.1) in technical triplicates and were then carefully mixed with the dilution series of the test substances (24 h cultivation at 25 °C for S. Infantis, 37 °C for other strains) or were directly cultivated to preform biofilms (18 h). For a positive control of bacterial growth, the inoculum was mixed with a pure sterile medium. Furthermore, the sterile medium was included in the plate as a marker of potential microbial contamination. To evaluate planktonic cells growth (MICPC80) and further growth of biofilm cells (MICBC80), the optical density of the content of the microtiter plates was measured spectrophotometrically at 625 nm before and after 24 h (for biofilm formation) of cultivation or before and after additional 20 h incubation with the tested compound (for preformed biofilm). The difference of A625nm was considered as a measure of the ability of cells to grow in the presence of the tested substances. To evaluate the inhibition of biofilm formation (MICBF80) and reduction in preformed biofilms (MICBR80), biomass was quantified using crystal violet staining, and its metabolic activity (MICBM80 and MICMPB80) was estimated by using the MTT (thiazyl tetrazolium bromide, Sigma-Aldrich, USA) reduction assay, both measured spectrophotometrically at 595 nm.
(§3) All inhibitions were calculated using the formula of Chlumsky et al. below (Equation (1)):(1) A625(595)nm inhibition (%)=A625(595)nm (control) – A625(595)nm(natural substance)/A625(595)nm (control)× 100 where A625(595)nm (control) is the absorbance of bacterial suspension/biofilm itself, and A625(595)nm(natural substance) is the absorbance of the bacterial suspension/biofilm with the added natural substance (NAC, RLs, and UA).
(§4) When the minimum inhibitory concentration could not be determined, the MIC was established as >the highest tested concentration for NAC, RLs, and UA.

E. coli 683/17 [2] = assay: as above; type: cell-based, Escherichia coli; conditions: for MICMPB80: ≥80% inhibition, 20 h with substance
Description: as §1, §2, §3, §4

E. coli 693/17 [3] = assay: CLSM analysis, biofilm prevention; type: cell-based, Escherichia coli; conditions: 24 h exposure; for Thickness (µm) subCBM80: substance at subinhibitory concentration, mean ± SD
Description: (§5) Biofilm prevention and removal analyses were performed using previously determined minimum inhibitory and subinhibitory concentrations for metabolic activity (MICBM80, subCBM80; MICMPB80, subCMPB80) of NAC, RLs, and UA specific for each tested strain. Selected concentrations were used to evaluate the inhibition of biofilm formation (biofilm prevention) and the reduction in previously formed biofilms (biofilm removal) for the same set of microorganisms, with the exception of S. Infantis, which was excluded from the analysis due to its inability to form biofilm in the selected microtiter plate. Biofilm prevention and removal were observed using CLSM with specific staining to distinguish between live and membrane-compromised cells. Images were analyzed to evaluate (i). the total volume of the biomass, (ii). ratios of live and membrane-compromised cells, and (iii). to calculate biofilm volume reduction for individual organisms after the respective treatment types. The total biofilm volume was normalized by the area of the well and expressed as an average biofilm thickness. Complete data are provided in Supplementary Materials (Tables S1–S8).
(§6) For both inhibition and reduction of biofilms, overnight cultures from BHI were diluted in TSB + 1% Glc to reach an absorbance of 0.08 to 0.1 at 625 nm. The inoculum (150 µL) was transferred into wells of the 96-well flat-bottomed Ibidiμ-Plate (Ibidi, Gräfelfing, Germany) and mixed with 150 µL of each of the three tested substances in technical quadruplicates, followed by incubation at 37 °C for 24 h. Simultaneously, the prepared bacterial suspensions were inoculated to an additional microtiter plate (200 µL) and allowed to form biofilm overnight (18 h at 37 °C). After the incubation, the content of the well was drained off, and 200 µL of each of the three tested substances was added to the plate, which was then incubated for an additional 20 h. The used concentrations of the substances represented the subinhibitory and minimum inhibitory concentrations for metabolic activity (subCBM80, MICBM80; subCMPB80, MICMPB80). Both setups contained a positive control of the bacterial growth (inoculum mixed with sterile TSB + 1% Glc medium) and a control monitoring microbial contamination (sterile medium). Non-treated wells were used as a positive control for comparison between non-treated and treated biofilm mass.
(§7) Prior to the imaging, the wells were stained with the LIVE/DEAD® BacLight™ Bacterial Viability Kit (Thermo Fisher Scientific, MA, USA) following the manufacturer’s guidelines and Drago et al.. Briefly, equal volumes of SYTO® 9 and propidium iodide were combined with the sterile distilled water to reach a final concentration of […]. The biofilm mass was stained using 300 µL of the staining solution per well followed by incubation at 37 °C in the dark for 15 min. Stained wells were washed once with sterile distilled water, which was then added to each well (300 µL). Images were acquired with an inverted Leica SP5 CLSM using a 1.25× dry objective (WD 3.7 mm, Z-resolution 27 µm, up to 24 Z-stacks per well) to visualize an entire well. Samples were kept at the cultivation conditions (37 °C, 5% CO2, 90% humidity) with an OkoLabs stage top environmental chamber (Oko Labs, PA, USA). Fluorophore excitation lasers and emission bandwidths were as follows: SYTO® 9 (ex/em 485/498 nm) 488 nm excitation, 495 to 550 nm emission collection; propidium iodide (ex/em 535/617 nm) 561 nm excitation, 595 to 650 nm emission collection. The laser beam scanned the visual field at a frequency of 600 Hz. The wells were captured in snapshots of 1024 × 1024 pixels representing the area of 153.76 mm^2.
(§8) All collected images were statistically evaluated to quantify biovolume utilizing the surface estimation procedure described in Parker et al.. […]

E. coli 683/17 [4] = assay: CLSM analysis, biofilm prevention; type: cell-based, Escherichia coli; conditions: 24 h exposure; for Thickness (µm) subCBM80: substance at subinhibitory concentration, mean ± SD
Description: as §5, §6, §7, §8

S. Infantis S59 = assay: MIC for planktonic cell growth (A625nm); type: cell-based, Salmonella enterica Infantis; conditions: for MICPC80: ≥80% inhibition, 24 h
Description: as §1, §2, §3, §4

S. Infantis S13 = assay: MIC for planktonic cell growth (A625nm); type: cell-based, Salmonella enterica Infantis; conditions: for MICPC80: ≥80% inhibition, 24 h
Description: as §1, §2, §3, §4

[5] = substance at its MICBM80, mean ± SD

Row | Structure (SMILES) | maximal achieved inhibition (MICMPB80 not reached) (E. coli 693/17 [1]; within tested concentrations) | maximal achieved inhibition (MICMPB80 not reached) (E. coli 683/17 [2]; within tested concentrations) | MICMPB80 (E. coli 683/17 [2]) | Thickness (µm) subCBM80 (E. coli 693/17 [3]) | Thickness (µm) subCBM80 (E. coli 683/17 [4]) | maximal achieved inhibition (MICPC80 not reached) (S. Infantis S59; within tested concentrations) | MICPC80 (S. Infantis S59) | maximal achieved inhibition (MICPC80 not reached) (S. Infantis S13; within tested concentrations) | MICPC80 (S. Infantis S13) | MICMPB80 (E. coli 693/17 [1]; ≥80% inhibition, 20 h with substance) | Thickness (µm) MICBM80 (E. coli 693/17 [3]; [5]) | Thickness (µm) MICBM80 (E. coli 683/17 [4]; [5])
1 | CC(=O)c1c(O)c(C)c(O)c2c1OC1=CC(=O)C(C(C)=O)C(=O)C12C (single isomer, unassigned; (+)) [UA, (+)-usnic acid] | 20% | 45% | > 31.3 µg/mL | 256 ± 12.6 µm | 269 ± 28.1 µm | 31% | > 31.3 µg/mL | 25% | > 31.3 µg/mL | – | – | –
2 | CC(=O)N[C@@H](CS)C(=O)O [NAC, N-Acetyl-L-cysteine] | – | – | 12,500 µg/mL | 181 ± 21.9 µm | 229 ± 9.9 µm | – | 6250 µg/mL | – | 6250 µg/mL | 12,500 µg/mL | 273 ± 40.8 µm | 271 ± 50.7 µm
